Legend:
[1] = tested on: orchidectomized rats (ORX); assay: Compression test of the vertebral body (L5) (Example 4); type: in vivo, rat; settings: for Elastic Modulus / Energy / Maximum Load / Stiffness / Toughness / Ultimate Strength: 12 weeks, vertebral body compression, mean
Procedure: (§1) Eight month-old male Sprague Dawley rats were either sham-operated (SHAM) or orchidectomized (ORX). Treatment began immediately following surgery. The treatment groups were as described in Table 5. Bone strength was evaluated using a compression test at the vertebral body, a three point bending test at the femoral shaft, a compression test at the distal femur and a cantilever compression test of the femoral neck. Prior to mechanical testing, all samples were thawed in cold saline and carefully cleaned of any remaining adherent soft tissue.

Orx rat = assay: Prostate weight in the Orx rat (Example 4); type: in vivo; settings: Orx rat (Orx decreased prostate weight by 77%); FIG. 3
Excerpt: (§2) Eight month-old male Sprague Dawley rats were either sham-operated (SHAM) or orchidectomized (ORX). Treatment began immediately following surgery. The treatment groups were as described in Table 5.

[2] = tested on: orchidectomized rats (ORX); assay: Ex vivo DXA of the femur (BMC, BA, BMD) (Example 4); type: in vivo, rat; settings: for Distal femur Bone Area / Distal femur Bone Mineral Content / Distal femur Bone Mineral Density / Midshaft femur Bone Area / Midshaft femur Bone Mineral Content / Midshaft femur Bone Mineral Density / Proximal femur Bone Area / Proximal femur Bone Mineral Content / Proximal femur Bone Mineral Density / Whole femur Bone Area / Whole femur Bone Mineral Content / Whole femur Bone Mineral Density: ORX rats, 6 wks, mean; for bone mass of the whole femur (DXA): 6 weeks of treatment; for loss in bone mineral density at the proximal femur (DXA): 10 mg/kg/d Tor, E 0.2 mg/kg/d; for bone density at the distal femur (DXA): 10 mg/kg/d toremifene, E 0.2 mg/kg/d (p<0.05 vs. Orx+Vehicle for E)
Procedure: as §2
Ex vivo DXA analysis was performed on the vertebra (L5) using a PIXImus instrument and associated animal research software (Lunar Corporation, Madison, Wis.). Bone mineral content (BMC), bone area (BA) and bone mineral density (BMD) are reported. Ex vivo DXA analysis was performed on the femur using a pDXA Sabre and associated animal research software (Norland Medical Systems, Inc., Fort Atkinson, Wis.). BMC, BA and BMD are reported for four regions of interest: whole femur, 25% distal femur, 25% proximal femur and 50% of midshaft femur.

[3] = tested on: orchidectomized rats (ORX); assay: Compression test of the distal femur (Example 4); type: in vivo, rat; settings: for Elastic Modulus / Energy / Maximum Load / Stiffness / Toughness / Ultimate Strength: distal femur
Procedure: as §1

[4] = tested on: C-telopeptide of rat collagen I in serum; assay: Serum RatLaps ELISA, C-telopeptide of type I collagen, orchidectomy model (Example 3); type: in vivo; settings: orchidectomized rats, 15 and 30 days; Toremifene 5 mg/kg/day, 17-β-estradiol 0.5 mg/kg/day s.c.; FIG. 1
Procedure: Male Sprague-Dawley rats (Harlan Sprague Dawley) were placed on study at 14-weeks of age. They were randomized and divided into five treatment groups: vehicle only (placebo, or P) after sham operation, vehicle only after orchidectomy (Orx), Toremifene (5 mg/kg/day) after sham-operation, and Toremifene after orchidectomy, and 17-β-estradiol (0.5 mg/kg/day) after orchidectomy. Test articles were delivered subcutaneously by Alzet pumps. Pumps were re-implanted every 30 days until the end of the study. Five to six animals from each group were sacrificed after 60 and 120 days of treatment, and femurs were harvested, stripped of soft tissue and muscle, and stored individually in polypropylene vials at −80° C. until analysis of bone density and mechanical strength testing. Additionally, serum was collected on days 15, 30, 60, 90 and 120, to measure markers of bone metabolism and to perform serum chemistry. […]
The assay was performed in duplicates, each 20 ul of serum as well as standards and control. […] After washing the strips 100 ul of the Chromogenic Substrate Solution was added to each well, and after 15 min the reaction was stopped and the absorbance was measured at 450 nm. The means of the duplicate absorbance determination were calculated, and a standard curve was constructed using 4-parametric logistic curve fit. Sample RatLaps concentrations were determined by interpolation.

[5] = week 12, Toremifene 5 and 10 mg/kg/d, Estradiol 0.2 mg/kg/d
[6] = Toremifene 5 mg/kg/d, Estradiol 0.2 mg/kg/d
[7] = Week 12, 5 mg/kg/d of Toremifene, Estradiol 0.2 mg/kg/d
[8] = week 6, mean, Toremifene 5 mg/kg/d, Estradiol 0.2 mg/kg/d
[9] = week 12, mean, Toremifene 5 mg/kg/d, Estradiol 0.2 mg/kg/d
[10] = week 6, mean, Toremifene 10 mg/kg/d
[11] = week 12, mean, Toremifene 10 mg/kg/d

In the case of `C[C@]12CC[C@@H]3c4ccc(O)cc4CC[C@H]3[C@@H]1CC[C@@H]2O` [17-β-Estradiol], the “Elastic Modulus” value ([1]; 0.2 mg/kg/d) is reported as 589.03 MPa, the Energy ([1]; 0.2 mg/kg/d) is reported as 43.60 mJ and the “Maximum Load” value ([1]; 0.2 mg/kg/d) is reported as 298.04 N. The Stiffness ([1]; 0.2 mg/kg/d) was 1648.17 N/mm, the Toughness ([1]; 0.2 mg/kg/d) was 0.94 MJ/m^3 and the “Ultimate Strength” value ([1]; 0.2 mg/kg/d) was 25.75 N/mm^2. For the same molecule, the “ORX-induced decreases in bone strength, compression test of the vertebral body” value (shortened to “ORX-induced decreases in bone strength”) [1, 5] was “prevented loss of bone strength due to ORX”, the prostate weight (Orx rat) was “no effect on prostate weight” and the “Distal femur Bone Area” value [2, 6] was 0.674 cm^2. The “Distal femur Bone Mineral Content” value [2, 6] was 0.162 gm, the “Distal femur Bone Mineral Density” value [2, 6] was 0.240 gm/cm^2 and the “Midshaft femur Bone Area” value [2, 6] was 1.128 cm^2. For the same molecule, the “Midshaft femur Bone Mineral Content” value [2, 6] was 0.281 gm, the “Midshaft femur Bone Mineral Density” value [2, 6] was 0.250 gm/cm^2 and the “Proximal femur Bone Area” value [2, 6] was 0.685 cm^2. For the same molecule, the “Proximal femur Bone Mineral Content” value [2, 6] was 0.167 gm, the “Proximal femur Bone Mineral Density” value [2, 6] was 0.245 gm/cm^2 and the “Whole femur Bone Area” value [2, 6] was 2.480 cm^2. The “Whole femur Bone Mineral Content” value [2, 6] was 0.609 gm, the “Whole femur Bone Mineral Density” value [2, 6] was 0.246 gm/cm^2 and the “bone mineral density at the midshaft femur (DXA)” value ([2]; Orx rats, 6 weeks) was “did not show any effect”. For the same molecule, the “bone mass of the whole femur (DXA)” value ([2]; Orx rats) was “did not exhibit any significant effect”, the “loss in bone mineral density at the proximal femur (DXA)” value ([2]; Orx rats, 6 weeks) was “somewhat helpful in preventing this loss” and the “bone density at the distal femur (DXA)” value ([2]; Orx rats, 6 weeks) was “significantly improved overall density”. The “bone strength, compression test of the distal femur” value (“bone strength … of the distal femur” below) ([3]; Week 6) was “highest values in all groups”, the “bone strength … of the distal femur” value [3, 7] was “highest values at Week 12” and the “Elastic Modulus” value [3, 8] was 579.48 MPa. For the same molecule, the Energy [3, 8] was 66.00 mJ, the “Maximum Load” value [3, 8] was 561.45 N and the Stiffness [3, 8] was 4758.55 N/mm. For the same molecule, the Toughness [3, 8] was 0.91 MJ/m^3, the “Ultimate Strength” value [3, 8] was 22.89 N/mm^2 and the “Elastic Modulus” value [3, 9] was 473.02 MPa. The Energy [3, 9] was 55.94 mJ, the “Maximum Load” value [3, 9] was 487.94 N and the Stiffness [3, 9] was 3714.71 N/mm. The Toughness [3, 9] was 0.78 MJ/m^3, the “Ultimate Strength” value [3, 9] was 20.66 N/mm^2 and the “C-telopeptide levels in serum” value [4] was “reduced the C-telopeptide levels to or below control values”.

With `CN(C)CCOc1ccc(/C(=C(/CCCl)c2ccccc2)c2ccccc2)cc1` [Toremifene] the “Elastic Modulus” value ([1]; 5 mg/kg/d) was 446.38 MPa, the Energy ([1]; 5 mg/kg/d) was 36.60 mJ and the “Maximum Load” value ([1]; 5 mg/kg/d) was 238.19 N. For the same molecule, the Stiffness ([1]; 5 mg/kg/d) was 1391.70 N/mm, the Toughness ([1]; 5 mg/kg/d) was 0.72 MJ/m^3 and the “Ultimate Strength” value ([1]; 5 mg/kg/d) was 19.08 N/mm^2. For the same molecule, the “Elastic Modulus” value ([1]; 10 mg/kg/d) was 438.64 MPa, the Energy ([1]; 10 mg/kg/d) was 27.02 mJ and the “Maximum Load” value ([1]; 10 mg/kg/d) was 206.48 N. The Stiffness ([1]; 10 mg/kg/d) was 1255.47 N/mm, the Toughness ([1]; 10 mg/kg/d) was 0.59 MJ/m^3 and the “Ultimate Strength” value ([1]; 10 mg/kg/d) was 18.12 N/mm^2. The “ORX-induced decreases in bone strength” value [1, 5] was “did not prevent these changes”, the “ORX-induced decreases in bone strength” value ([1]; week 12, Toremifene at the 10 mg/kg/d dose) was “may have worsened the changes” and the prostate weight (Orx rat) was “no effect on prostate weight”. The “Distal femur Bone Area” value [2, 6] was 0.649 cm^2, the “Distal femur Bone Mineral Content” value [2, 6] was 0.145 gm and the “Distal femur Bone Mineral Density” value [2, 6] was 0.224 gm/cm^2. For the same molecule, the “Midshaft femur Bone Area” value [2, 6] was 1.086 cm^2, the “Midshaft femur Bone Mineral Content” value [2, 6] was 0.271 gm and the “Midshaft femur Bone Mineral Density” value [2, 6] was 0.249 gm/cm^2. For the same molecule, the “Proximal femur Bone Area” value [2, 6] was 0.658 cm^2, the “Proximal femur Bone Mineral Content” value [2, 6] was 0.154 gm and the “Proximal femur Bone Mineral Density” value [2, 6] was 0.234 gm/cm^2. The “Whole femur Bone Area” value [2, 6] was 2.389 cm^2, the “Whole femur Bone Mineral Content” value [2, 6] was 0.570 gm and the “Whole femur Bone Mineral Density” value [2, 6] was 0.238 gm/cm^2. The “Distal femur Bone Area” value ([2]; Toremifene 10 mg/kg/d) was 0.659 cm^2, the “Distal femur Bone Mineral Content” value ([2]; Toremifene 10 mg/kg/d) was 0.152 gm and the “Distal femur Bone Mineral Density” value ([2]; Toremifene 10 mg/kg/d) was 0.230 gm/cm^2. The “Midshaft femur Bone Area” value ([2]; Toremifene 10 mg/kg/d) was 1.094 cm^2, the “Midshaft femur Bone Mineral Content” value ([2]; Toremifene 10 mg/kg/d) was 0.286 gm and the “Midshaft femur Bone Mineral Density” value ([2]; Toremifene 10 mg/kg/d) was 0.261 gm/cm^2. The “Proximal femur Bone Area” value ([2]; Toremifene 10 mg/kg/d) was 0.672 cm^2, the “Proximal femur Bone Mineral Content” value ([2]; Toremifene 10 mg/kg/d) was 0.164 gm and the “Proximal femur Bone Mineral Density” value ([2]; Toremifene 10 mg/kg/d) was 0.244 gm/cm^2. For the same molecule, the “Whole femur Bone Area” value ([2]; Toremifene 10 mg/kg/d) was 2.420 cm^2, the “Whole femur Bone Mineral Content” value ([2]; Toremifene 10 mg/kg/d) was 0.601 gm and the “Whole femur Bone Mineral Density” value ([2]; Toremifene 10 mg/kg/d) was 0.248 gm/cm^2. The “bone mineral density at the midshaft femur (DXA)” value ([2]; Orx rats, 6 weeks) was “did not show any effect”, the “bone mass of the whole femur (DXA)” value ([2]; Orx rats) was “did not exhibit any significant effect” and the “loss in bone mineral density at the proximal femur, as in distal femur (DXA)” value ([2]; Orx rats, 6 weeks, 5 mg/kg/d Tor) was “ineffective”. For the same molecule, the “loss in bone mineral density at the proximal femur (DXA)” value ([2]; Orx rats, 6 weeks) was “somewhat helpful in preventing this loss”, the “bone density at the distal femur (DXA)” value ([2]; Orx rats, 6 weeks) was “prevented Orx-related loss of bone density” and the “bone strength … of the distal femur” value ([3]; Week 6) was “bone strength similar to that of Sham-operated animals”. For the same molecule, the “bone strength … of the distal femur” value [3, 7] was “maintained similar strength”, the “bone strength … of the distal femur” value ([3]; Week 12, 10 mg/kg/d Toremifene) was “small decrease in strength” and the “Elastic Modulus” value [3, 8] was 535.08 MPa. For the same molecule, the Energy [3, 8] was 56.00 mJ, the “Maximum Load” value [3, 8] was 469.64 N and the Stiffness [3, 8] was 4058.07 N/mm. The Toughness [3, 8] was 0.81 MJ/m^3, the “Ultimate Strength” value [3, 8] was 20.54 N/mm^2 and the “Elastic Modulus” value [3, 10] was 440.77 MPa. For the same molecule, the Energy [3, 10] was 66.19 mJ, the “Maximum Load” value [3, 10] was 447.29 N and the Stiffness [3, 10] was 3549.70 N/mm. The Toughness [3, 10] was 0.91 MJ/m^3, the “Ultimate Strength” value [3, 10] was 18.47 N/mm^2 and the “Elastic Modulus” value [3, 9] was 379.32 MPa. The Energy [3, 9] was 53.13 mJ, the “Maximum Load” value [3, 9] was 458.79 N and the Stiffness [3, 9] was 3175.07 N/mm. For the same molecule, the Toughness [3, 9] was 0.69 MJ/m^3, the “Ultimate Strength” value [3, 9] was 18.09 N/mm^2 and the “Elastic Modulus” value [3, 11] was 418.05 MPa. The Energy [3, 11] was 45.57 mJ, the “Maximum Load” value [3, 11] was 411.45 N and the Stiffness [3, 11] was 3366.63 N/mm. For the same molecule, the Toughness [3, 11] was 0.62 MJ/m^3, the “Ultimate Strength” value [3, 11] was 16.81 N/mm^2 and the “C-telopeptide levels in serum” value [4] was “reduced the C-telopeptide levels to or below control values”.

Reference: US7524866B2, “Prevention and treatment of androgen—deprivation induced osteoporosis” (GTx, Inc., priority 2001, dated 2009)
